In patent US10501460B2, “Heterocyclic compounds and uses thereof” (Plexxikon Inc., priority 2013, dated 2019):

What was measured:
MV-4-11 = assay: Oncology cell growth assay MV-4-11 (CellTiter Glo, 72 hours); format: cell-based; conditions: Homo sapiens, MV4-11, 72 h; MV-4-11 cell growth inhibitory activity, 3d
Summary of the method: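 MV-4-11 cells (MLL-AF4 AML) exposed 72 h to 8-point 1:3 titration, top final 10 μM, 0.2% DMSO. CellTiter Glo luminescence as cell-number readout, normalized to DMSO controls; pIC50 from four-parameter fit.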

bromodomain = assay: Bromodomain cell assays of Example 40 (at least one of them); format: cell-based; conditions: in at least one of the bromodomain cell assays described in Example 40
Summary of the method: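 Growth inhibition: 3000 MV-4-11, MOLM-13, MM.1S or neuroblastoma cells/well got an 8-point 1:3 series from 10 μM top (0.2% DMSO) for 72 h, then CellTiter-Glo luminescence. Myc reporter: MV-4-11 with E-box firefly luciferase, 24 h exposure, One-Glo luminescence plus CellTiter-Fluo cell count. pIC50 from four-parameter fit.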

BRD4-BD1 (44-164) = target: T1, BRD4-BD1 (44-164) (Homo sapiens, UniProt O60885); assay: Alphascreen binding assay BRD4-BD1 (BRD4 biochemical inhibitory activity); conditions: read-out: Biochemical activity (IC50 μM) BRD4(1) H4
T1 construct: BRD4-BD1 (44-164); made in house; host or cells: E. coli BL21-CodonPlus (DE3)
Method: Binding of compounds of formula (I) with bromodomain 2, 3 4 was assessed using Alphascreen binding assay. The inhibition of the interaction between bromodomain and its acetylated target protein (Filippakopoulos P et al. 2012) was measured quantitatively using recombinant BRD proteins, an acetylated Histone 4 peptide and AlphaScreen™ technology. In absence of inhibition the BRD protein bound to AlphaScreen™ nickel chelate acceptor beads can interact with the acetylated Histone 4 peptide which is immobilized by the AlphaScreen™ Streptavidin coated beads. This interaction brings donor and acceptor beads in proximity. The close proximity allows the singlet oxygen produced by laser excitation of the donor beads to reach the acceptor beads and generate a luminescence signal. BRD inhibitors result in a decrease in the proximity signal through an inhibition of the BRD—acetylated peptide interaction.
Recombinant human bromodomains containing the N-terminal bromodomain (BRD2-BD1 (71-194), BRD3-BD1 (24-144) and BRD4-BD1 (44-164)) or dual bromodomains (BRD4-BD12 (1-477), BRD4-BD12 (1-472)) were prepared and purified as described in protein expression and purification session. The peptide is human Histone H41-21K5AcK8AcK12AcK16Ac-Biotin (Anaspec Calif., USA).
Protocol for BRD2, BRD3 and BRD4 assay: All components are prepared in buffer composed of 50 mM HEPES pH 7.5, 100 mM NaCl, 0.01% bovine serum albumin (“BSA”), 0.01% Triton X-100, 2 mM dithiothreitol (“DTT”). 7 μL of Bromodomain protein and 7 μL of peptide are added to wells containing 1 μL of various concentrations of test compounds of formula (I) or DMSO vehicle in an Alphaplate (PerkinElmer Ga., USA) and incubated for 1 hour at room temperature. 4 μL donor and acceptor bead mixture is then added with final concentrations of 7.5 μg/ml. 30 minutes after bead addition, Alpha signal is read on the Envision spectrometer ([…]Ex 680 nm, […]Em 520-620 nm). Final concentrations of bromodomain proteins and peptide are as shown below.
All data was normalized to the mean of 16 high and 16 low control wells on each plate. A four parameter curve fit of the following formula was then applied: Y=a+(b−a)/(1+(x/c)^d) Where ‘a’ is the minimum, ‘b’ is the maximum, ‘c’ is the pIC50 and ‘d’ is the Hill slope. Protein Expression and Purification
Recombinant human bromodomains containing the N-terminal bromodomain (BRD2-BD1 (71-194), BRD3-BD1 (24-144) and BRD4-BD1 (44-164)) or dual bromodomains (BRD4-BD12 (1-477), BRD4-BD12 (1-472)) were expressed in E. coli cells (in a modified pET vector) with an N-terminal six-His tag and purified using a combination of both IMAC (Ni-affinity) and size exclusion chromatography steps.
Recombinant BRD proteins were expressed using the E. coli strain BL21-CodonPlus (DE3) (Agilent Technologies Calif., USA). Cells were grown in Terrific Broth (TB) media to an OD600 of 1.2 at 37° C. at which temperature was reduced to 25° C., protein was induced with 1.0 mM ispropyl-β-D-thiogalactopyranoside (“IPTG”) for 12-18 hours and harvested by centrifugation at 8000×g for 20 minutes. Cells were re-suspended in 0.1M K2PO4 pH 8.0, 250 mM NaCl, 10% Glycerol, 0.75% NP-40, 25 mM Imidazole, 5 mM beta-mercaptoethanol (“BME”) with 0.2 mg/ml Lysosyme, 2.0 mM phenylmethanesulfonyl fluoride (“PMSF”), 25 μg/ml DNAse I, incubated on ice for 30 minutes and lyzed with a cell disruptor (MicroFluidics Mass., USA). The lysate was clarified by centrifugation at 20,000×g for 2 hours. The protein was captured with Ni-NTA resin (Life Technologies, USA). Contaminating proteins were washed off with 25 mM Tris-HCl pH 8.3, 250 mM NaCl, 12% Glycerol and 50 mM Imidazole. Following 3× wash steps, protein was eluted step wise using a 50 mM HEPES pH 7.5, 500 mM NaCl and 400 mM Imidazole. The protein was further purified using Gel Filtration column 26/600 Superdex 200 (GE Biosciences NJ, USA) in 50 mM HEPES pH 7.5, 250 mM NaCl. The protein was aliquoted and flash-frozen in liquid Nitrogen. […]

SMILES	IC50 (MV-4-11) [µM]	IC50 (bromodomain) [µM]	IC50 (BRD4-BD1 (44-164)) [µM]
Cc1noc(C)c1-c1cnc2ccn(S(=O)(=O)c3cccc(F)c3)c2c1 [P-0056, 4-[1-(3-fluorophenyl)sulfonylpyrrolo[3,2-b]pyridin-6-yl]-3,5-dimethyl-isoxazole]	1 to 10	< 10	1 to 10
Cc1noc(C)c1-c1cnc2ccn(S(=O)(=O)c3ccc(OC(C)C)cc3)c2c1 [P-0033, 4-[1-(4-isopropoxyphenyl)sulfonylpyrrolo[3,2-b]pyridin-6-yl]-3,5-dimethyl-isoxazole]	1 to 10	< 10	1 to 10
[2H]C([2H])([2H])n1cc(CC2CCC(F)(F)CC2)c2cc(-c3c(C)noc3C)cnc21 [P-0079, 4-[3-[(4,4-difluorocyclohexyl)methyl]-1-(trideuteriomethyl)pyrrolo[2,3-b]pyridin-5-yl]-3,5-dimethyl-isoxazole]	1 to 10	< 10	≤ 1
Cc1noc(C)c1-c1cnc2c(c1)c(Sc1ccccc1)cn2C1CCOCC1 [P-0182, 3,5-dimethyl-4-(3-phenylsulfanyl-1-tetrahydropyran-4-yl-pyrrolo[2,3-b]pyridin-5-yl)isoxazole]	≤ 1	< 10	1 to 10
Cc1noc(C)c1-c1cnc2ccn(S(=O)(=O)c3cnn(C(F)F)c3)c2c1 [P-0054, 4-[1-[1-(difluoromethyl)pyrazol-4-yl]sulfonylpyrrolo[3,2-b]pyridin-6-yl]-3,5-dimethyl-isoxazole]	1 to 10	< 10	1 to 10
CCc1cc2cc(-c3c(C)noc3C)cnc2[nH]1 [P-0035, 4-(2-ethyl-1H-pyrrolo[2,3-b]pyridin-5-yl)-3,5-dimethyl-isoxazole]	1 to 10	< 10	1 to 10
Cc1noc(C)c1-c1cnc2[nH]cc(C=C3CC[S+]([O-])CC3)c2c1 (stereo not drawn) [P-0093, 4-[[5-(3,5-dimethylisoxazol-4-yl)-1H-pyrrolo[2,3-b]pyridin-3-yl]methylene]thiane 1-oxide]	1 to 10	< 10	1 to 10
Cc1cc(-c2cn(S(=O)(=O)c3ccccc3)c3cc(-c4c(C)noc4C)cnc23)[nH]n1 [P-0164, 4-[1-(benzenesulfonyl)-3-(3-methyl-1H-pyrazol-5-yl)pyrrolo[3,2-b]pyridin-6-yl]-3,5-dimethyl-isoxazole]	≤ 1	< 10	≤ 1
Cc1nn(C(F)F)cc1S(=O)(=O)n1ccc2ncc(-c3c(C)noc3C)cc21 [P-0058, 4-[1-[1-(difluoromethyl)-3-methyl-pyrazol-4-yl]sulfonylpyrrolo[3,2-b]pyridin-6-yl]-3,5-dimethyl-isoxazole]	1 to 10	< 10	1 to 10
Cc1noc(C)c1-c1cnc2c(c1)c(S(=O)(=O)c1ccccc1)cn2C1CCOC1 (stereo not drawn) [P-0181, 4-[3-(benzenesulfonyl)-1-tetrahydrofuran-3-yl-pyrrolo[2,3-b]pyridin-5-yl]-3,5-dimethyl-isoxazole]	≤ 1	< 10	1 to 10
Cc1noc(C)c1-c1cnc2c(c1)c(S(=O)(=O)c1ccccc1)cn2C1COC1 [P-0179, 4-[3-(benzenesulfonyl)-1-(oxetan-3-yl)pyrrolo[2,3-b]pyridin-5-yl]-3,5-dimethyl-isoxazole]	1 to 10	< 10	1 to 10
CCCCC(c1cn(C)c2ncc(-c3c(C)noc3C)cc12)C1CCC(F)(F)CC1 (stereo not drawn) [P-0109, 4-[3-[1-(4,4-difluorocyclohexyl)pentyl]-1-methyl-pyrrolo[2,3-b]pyridin-5-yl]-3,5-dimethyl-isoxazole]	1 to 10	< 10	≤ 1
Cc1noc(C)c1-c1cnc2ccn(S(=O)(=O)c3cccc(OC(F)F)c3)c2c1 [P-0061, 4-[1-[3-(difluoromethoxy)phenyl]sulfonylpyrrolo [3,2-b]pyridin-6-yl]-3,5-dimethyl-isoxazole]	1 to 10	< 10	1 to 10
Cc1noc(C)c1-c1cnc2ccn(S(=O)(=O)c3cccc(Cl)c3)c2c1 [P-0057, 4-[1-(3-chlorophenyl)sulfonylpyrrolo[3,2-b]pyridin-6-yl]-3,5-dimethyl-isoxazole]	≤ 1	< 10	1 to 10
Cc1cc2cc(-c3c(C)noc3C)cnc2[nH]1 [P-0017, 3,5-dimethyl-4-(2-methyl-1H-pyrrolo[2,3-b]pyridin-5-yl)isoxazole]	1 to 10	< 10	1 to 10
[2H]C([2H])([2H])n1cc(CC2CCN(C(=O)OCc3ccccc3)CC2)c2cc(-c3c(C)noc3C)cnc21 [P-0092, benzyl 4-[[5-(3,5-dimethylisoxazol-4-yl)-1-(trideuteriomethyl)pyrrolo[2,3-b]pyridin-3-yl]methyl]piperidine-1-carboxylate]	1 to 10	< 10	≤ 1
COc1ccc(S(=O)(=O)n2ccc3ncc(-c4c(C)noc4C)cc32)cc1 [P-0032, 4-[1-(4-methoxyphenyl)sulfonylpyrrolo[3,2-b]pyridin-6-yl]-3,5-dimethyl-isoxazole]	1 to 10	< 10	1 to 10
Cc1noc(C)c1-c1cnc2[nH]cc(C=C3CCS(=O)(=O)CC3)c2c1 [P-0099, 4-[[5-(3,5-dimethylisoxazol-4-yl)-1H-pyrrolo[2,3-b]pyridin-3-yl]methylene]thiane 1,1-dioxide]	1 to 10	< 10	1 to 10
Cc1noc(C)c1-c1cnc2c(c1)c(C=C1CCS(=O)(=O)CC1)cn2S(=O)(=O)c1ccccc1 [P-0097, 4-[[1-(benzenesulfonyl)-5-(3,5-dimethylisoxazol-4-yl)pyrrolo[2,3-b]pyridin-3-yl]methylene]thiane 1,1-dioxide]	1 to 10	< 10	1 to 10
